Test results from ChEMBL document CHEMBL1221361, “Substituted biaryl oxazoles, imidazoles, and thiazoles as sodium channel blockers” (Bioorg Med Chem Lett, 2010).
“And” between values parts separate entries of the source, which are not always exact repeats. Equal entries are not always repeated. Blank lines part the entries; values can stand above or below the compound they belong to.

Legend:
[1] = target: T1, Sodium channel protein type 9 subunit alpha (Homo sapiens, UniProt Q15858); experiment: Blockade of human Nav1.7 by voltage ion probe reader based FRET assay
Target sequence in this assay (Q15858 whole entry): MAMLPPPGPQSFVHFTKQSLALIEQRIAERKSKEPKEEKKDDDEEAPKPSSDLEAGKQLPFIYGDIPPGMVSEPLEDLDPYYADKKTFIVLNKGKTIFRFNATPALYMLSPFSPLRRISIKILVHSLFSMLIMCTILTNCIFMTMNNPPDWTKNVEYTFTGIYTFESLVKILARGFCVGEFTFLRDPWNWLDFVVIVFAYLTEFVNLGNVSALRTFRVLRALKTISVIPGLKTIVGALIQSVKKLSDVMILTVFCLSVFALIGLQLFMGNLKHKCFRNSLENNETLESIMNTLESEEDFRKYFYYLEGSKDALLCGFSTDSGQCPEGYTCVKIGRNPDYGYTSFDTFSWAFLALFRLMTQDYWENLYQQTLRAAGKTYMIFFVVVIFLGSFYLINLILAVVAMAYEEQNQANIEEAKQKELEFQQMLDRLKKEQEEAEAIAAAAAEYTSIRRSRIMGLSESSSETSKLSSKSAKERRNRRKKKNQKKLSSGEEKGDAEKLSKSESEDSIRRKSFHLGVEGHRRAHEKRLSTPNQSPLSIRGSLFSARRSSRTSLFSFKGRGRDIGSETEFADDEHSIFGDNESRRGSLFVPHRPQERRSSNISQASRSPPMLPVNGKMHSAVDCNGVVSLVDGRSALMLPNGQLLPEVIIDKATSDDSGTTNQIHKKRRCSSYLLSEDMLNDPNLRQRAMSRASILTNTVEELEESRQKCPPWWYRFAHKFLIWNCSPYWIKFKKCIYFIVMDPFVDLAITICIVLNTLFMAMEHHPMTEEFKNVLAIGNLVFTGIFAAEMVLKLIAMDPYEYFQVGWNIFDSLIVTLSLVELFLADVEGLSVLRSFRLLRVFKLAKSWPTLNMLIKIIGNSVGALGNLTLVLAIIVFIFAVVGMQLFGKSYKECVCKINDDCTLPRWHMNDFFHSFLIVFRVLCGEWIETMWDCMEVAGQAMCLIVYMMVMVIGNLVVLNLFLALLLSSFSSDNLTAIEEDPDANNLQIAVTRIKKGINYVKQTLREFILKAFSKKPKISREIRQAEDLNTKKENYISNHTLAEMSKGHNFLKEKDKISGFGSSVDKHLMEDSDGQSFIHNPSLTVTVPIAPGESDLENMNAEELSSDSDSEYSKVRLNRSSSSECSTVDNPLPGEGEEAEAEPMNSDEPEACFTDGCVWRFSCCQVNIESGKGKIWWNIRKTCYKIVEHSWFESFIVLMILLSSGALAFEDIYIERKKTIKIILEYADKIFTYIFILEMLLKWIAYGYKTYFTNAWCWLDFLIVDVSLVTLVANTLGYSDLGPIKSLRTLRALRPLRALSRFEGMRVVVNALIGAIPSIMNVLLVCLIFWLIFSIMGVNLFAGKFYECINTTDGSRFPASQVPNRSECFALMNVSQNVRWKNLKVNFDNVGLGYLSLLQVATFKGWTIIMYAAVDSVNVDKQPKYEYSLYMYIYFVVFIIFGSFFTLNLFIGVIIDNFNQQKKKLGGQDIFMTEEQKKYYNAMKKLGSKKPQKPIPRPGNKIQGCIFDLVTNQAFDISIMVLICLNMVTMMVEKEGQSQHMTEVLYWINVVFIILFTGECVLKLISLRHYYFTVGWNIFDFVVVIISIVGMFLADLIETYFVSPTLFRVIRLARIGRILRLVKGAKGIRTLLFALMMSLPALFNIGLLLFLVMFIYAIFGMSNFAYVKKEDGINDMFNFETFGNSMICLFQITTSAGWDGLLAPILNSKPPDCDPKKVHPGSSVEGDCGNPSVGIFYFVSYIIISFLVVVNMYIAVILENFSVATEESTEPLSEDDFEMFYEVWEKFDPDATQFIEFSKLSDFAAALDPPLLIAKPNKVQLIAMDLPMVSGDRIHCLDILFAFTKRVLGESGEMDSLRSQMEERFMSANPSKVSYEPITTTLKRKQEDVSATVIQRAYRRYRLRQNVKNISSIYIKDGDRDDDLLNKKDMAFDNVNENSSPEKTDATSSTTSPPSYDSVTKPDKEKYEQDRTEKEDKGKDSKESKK

hERG (KCNH2) = hERG (KCNH2) (Homo sapiens, UniProt Q12809); experiment: Displacement of radiolabeled MK-0499 from human ERG at 1 uM; details: probe radiolabeled MK-0499
Chain of hERG (KCNH2) (Q12809 whole entry): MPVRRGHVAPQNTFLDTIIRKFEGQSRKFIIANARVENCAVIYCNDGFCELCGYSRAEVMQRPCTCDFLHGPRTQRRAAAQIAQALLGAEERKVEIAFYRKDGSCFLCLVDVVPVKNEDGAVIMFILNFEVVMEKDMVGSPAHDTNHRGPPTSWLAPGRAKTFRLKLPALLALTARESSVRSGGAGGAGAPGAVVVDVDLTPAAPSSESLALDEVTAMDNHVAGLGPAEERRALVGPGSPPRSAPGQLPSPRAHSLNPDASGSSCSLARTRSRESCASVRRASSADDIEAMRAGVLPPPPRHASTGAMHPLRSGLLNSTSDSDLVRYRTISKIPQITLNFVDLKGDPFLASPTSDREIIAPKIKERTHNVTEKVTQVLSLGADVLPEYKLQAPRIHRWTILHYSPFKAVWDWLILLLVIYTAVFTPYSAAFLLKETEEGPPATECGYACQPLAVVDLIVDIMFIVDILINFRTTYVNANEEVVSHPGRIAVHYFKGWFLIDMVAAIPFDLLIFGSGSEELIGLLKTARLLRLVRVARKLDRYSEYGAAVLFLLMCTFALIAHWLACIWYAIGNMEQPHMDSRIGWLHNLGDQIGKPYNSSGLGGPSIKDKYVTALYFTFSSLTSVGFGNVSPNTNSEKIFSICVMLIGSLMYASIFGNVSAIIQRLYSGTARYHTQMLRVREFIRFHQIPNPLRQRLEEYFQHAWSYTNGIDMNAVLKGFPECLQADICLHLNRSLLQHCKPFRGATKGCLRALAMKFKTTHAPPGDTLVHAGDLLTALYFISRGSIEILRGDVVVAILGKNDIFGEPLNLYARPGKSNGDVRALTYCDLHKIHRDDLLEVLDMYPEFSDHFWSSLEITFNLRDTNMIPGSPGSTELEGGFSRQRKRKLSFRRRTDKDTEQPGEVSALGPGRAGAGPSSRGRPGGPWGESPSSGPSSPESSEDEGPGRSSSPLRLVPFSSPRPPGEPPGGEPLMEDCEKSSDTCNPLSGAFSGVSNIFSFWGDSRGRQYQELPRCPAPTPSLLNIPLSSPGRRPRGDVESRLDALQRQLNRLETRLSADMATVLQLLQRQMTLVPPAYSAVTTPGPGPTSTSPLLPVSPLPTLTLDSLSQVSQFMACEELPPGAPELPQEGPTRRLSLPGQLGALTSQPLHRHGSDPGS

Cytochrome P450 2D6 = Cytochrome P450 2D6 (Homo sapiens, UniProt P10635); experiment: Inhibition of CYP2D6; type: ADME
Chain of Cytochrome P450 2D6 (P10635 whole entry): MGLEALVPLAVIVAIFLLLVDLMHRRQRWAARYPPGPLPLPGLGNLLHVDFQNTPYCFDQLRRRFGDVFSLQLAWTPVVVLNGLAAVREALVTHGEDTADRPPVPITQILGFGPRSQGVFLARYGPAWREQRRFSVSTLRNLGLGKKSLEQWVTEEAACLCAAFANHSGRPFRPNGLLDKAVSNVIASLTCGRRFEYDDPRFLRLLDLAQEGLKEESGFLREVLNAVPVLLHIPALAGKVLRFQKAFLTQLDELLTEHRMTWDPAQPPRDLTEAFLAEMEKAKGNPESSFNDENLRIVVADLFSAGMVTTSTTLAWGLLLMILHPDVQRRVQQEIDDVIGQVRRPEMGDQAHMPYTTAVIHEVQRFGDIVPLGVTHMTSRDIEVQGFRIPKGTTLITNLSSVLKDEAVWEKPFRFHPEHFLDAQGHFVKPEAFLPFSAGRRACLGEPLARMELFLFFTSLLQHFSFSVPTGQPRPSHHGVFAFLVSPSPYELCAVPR

[2] = Oral bioavailability in rat at 1 to 2 mg/kg; type: ADME, organism-based; details: in vivo
[3] = Half life in rat plasma at 1 to 2 mg/kg; type: ADME, organism-based; design: dose 1-2 mg/kg
Cytochrome P450 3A4 = Cytochrome P450 3A4 (Homo sapiens, UniProt P08684); experiment: Inhibition of CYP3A4; type: ADME
Chain of Cytochrome P450 3A4 (P08684 whole entry): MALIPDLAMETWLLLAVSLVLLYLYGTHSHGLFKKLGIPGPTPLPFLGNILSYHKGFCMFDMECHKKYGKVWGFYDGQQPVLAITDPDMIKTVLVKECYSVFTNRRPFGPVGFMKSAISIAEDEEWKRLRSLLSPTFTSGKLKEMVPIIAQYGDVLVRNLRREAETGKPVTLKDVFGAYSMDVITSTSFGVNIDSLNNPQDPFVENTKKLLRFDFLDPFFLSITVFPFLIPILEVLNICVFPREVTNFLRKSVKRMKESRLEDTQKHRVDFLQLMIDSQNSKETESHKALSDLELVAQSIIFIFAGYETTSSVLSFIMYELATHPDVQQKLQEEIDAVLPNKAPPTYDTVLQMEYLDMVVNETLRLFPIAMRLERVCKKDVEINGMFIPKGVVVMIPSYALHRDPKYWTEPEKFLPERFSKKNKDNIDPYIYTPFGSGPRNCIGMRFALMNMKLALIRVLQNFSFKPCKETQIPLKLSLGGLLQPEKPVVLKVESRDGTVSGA

Cytochrome P450 2C9 = Cytochrome P450 2C9 (Homo sapiens, UniProt P11712); experiment: Inhibition of CYP2C9; type: ADME
Chain of Cytochrome P450 2C9 (P11712 whole entry): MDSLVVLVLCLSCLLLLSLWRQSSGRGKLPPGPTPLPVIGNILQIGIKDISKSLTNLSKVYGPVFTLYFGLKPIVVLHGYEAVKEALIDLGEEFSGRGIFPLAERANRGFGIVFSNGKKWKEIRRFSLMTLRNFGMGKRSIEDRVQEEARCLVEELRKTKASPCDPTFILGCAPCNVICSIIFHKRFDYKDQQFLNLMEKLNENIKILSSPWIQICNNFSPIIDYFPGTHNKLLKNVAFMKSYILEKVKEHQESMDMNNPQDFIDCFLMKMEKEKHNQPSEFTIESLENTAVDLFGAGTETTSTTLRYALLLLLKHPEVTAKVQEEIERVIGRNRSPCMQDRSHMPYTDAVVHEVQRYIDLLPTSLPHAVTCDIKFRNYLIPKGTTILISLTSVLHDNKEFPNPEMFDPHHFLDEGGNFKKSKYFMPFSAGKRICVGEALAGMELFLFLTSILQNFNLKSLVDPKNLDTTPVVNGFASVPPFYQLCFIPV

[4] = Clearance in rat plasma at 1 to 2 mg/kg; type: ADME, organism-based; design: dose 1-2 mg/kg
[5] = target: T1, Sodium channel protein type 9 subunit alpha; experiment: Blockade of human Nav1.7 by electrophysiology assay
Target sequence in this assay (Q15858 whole entry): as the sequence (Q15858 whole entry) above

[6] = target: T1, Sodium channel protein type 9 subunit alpha; experiment: Binding affinity to human Nav1.7
Target sequence in this assay (Q15858 whole entry): as above

[7] = target: T1, Sodium channel protein type 9 subunit alpha; experiment: Blockade of human Nav1.7 at 1 uM by voltage ion probe reader based FRET assay
Target sequence in this assay (Q15858 whole entry, looked up): as the sequence (Q15858 whole entry) above

[8] = Clearance in rat plasma at 1 to 3 mg/kg; type: ADME, organism-based; design: dose 1-3 mg/kg
[9] = Oral bioavailability in rat at 1 to 3 mg/kg; type: ADME, organism-based; details: in vivo
[10] = Half life in rat plasma at 1 to 3 mg/kg; type: ADME, organism-based; design: dose 1-3 mg/kg
Rattus norvegicus = experiment: Analgesic activity rat spinal nerve ligation Chung model assessed as reversal of mechanical allodynia at 10 mg/kg, po administered 14 days after surgery measured 2 hrs after postdose; type: functional
[11] = Metabolic stability in human liver S9 microsomes assessed as compound remaining after 1 hr; type: ADME, Microsome; details: read-out: INH
[12] = Metabolic stability in dog liver S9 microsomes assessed as compound remaining after 1 hr; type: ADME, Canis lupus familiaris, Microsome; details: read-out: INH
[13] = Metabolic stability in dog hepatocytes assessed as compound remaining after 2 hrs; type: ADME, cell-based, Canis lupus familiaris, Hepatocyte; details: read-out: INH
[14] = Metabolic stability in rat liver S9 microsomes assessed as compound remaining after 1 hr; type: ADME, Microsome; details: read-out: INH

Structure (SMILES): Cc1nc(-c2cccc(-c3ccccc3OC(F)(F)F)c2)cs1
IC50 [1]: 2.99 µM

Structure (SMILES): FC(F)(F)c1ccccc1-c1cccc(-c2c[nH]cn2)c1
IC50 [1]: 2.1 µM
inhibition at 1 µM (hERG (KCNH2)): 75%
IC50 (Cytochrome P450 2D6): < 0.05 µM
bioavailability [2]: 71%
half-life [3]: 37.8 min
IC50 (Cytochrome P450 3A4): < 0.05 µM
IC50 (Cytochrome P450 2C9): < 0.05 µM
clearance [4]: 1.92 L/h/kg
IC50 [5]: 0.15 µM

Structure (SMILES): NC(=O)N/N=C/c1ccc(Oc2ccc(F)cc2)cc1
Ki [6]: 0.36 µM

Structure (SMILES): NC(=O)c1nc(-c2ccc(-c3ccccc3OC(F)(F)F)cc2)cs1
inhibition [7]: 6.1%

Structure (SMILES): Nc1nc(-c2cccc(-c3ccccc3OC(F)(F)F)c2)co1
inhibition [7]: 37%

Structure (SMILES): FC(F)(F)Oc1ccccc1-c1cccc(-c2csc(-c3cnccn3)n2)c1
IC50 [1]: 1.26 µM

Structure (SMILES): NC(=O)c1csc(-c2cccc(-c3ccccc3OC(F)(F)F)c2)n1
IC50 [1]: 0.26 µM
inhibition at 1 µM (hERG (KCNH2)): 55%
IC50 (Cytochrome P450 2D6): > 50 µM
clearance [8]: 6.72 L/h/kg
bioavailability [9]: 22%
IC50 (Cytochrome P450 3A4): > 50 µM
IC50 (Cytochrome P450 2C9): 8.79 µM
half-life [10]: 44.4 min
IC50 [5]: 0.05 µM

Structure (SMILES): OCc1nc(-c2cccc(-c3ccccc3OC(F)(F)F)c2)cs1
IC50 [1]: 1.8 µM

Structure (SMILES): Cc1sc(C(N)=O)nc1-c1cccc(-c2ccccc2OC(F)(F)F)c1
IC50 [1]: 0.43 µM

Structure (SMILES): Cn1cc(-c2cc(-c3ccccc3OC(F)(F)F)ccc2F)nc1C(N)=O
inhibition [7]: 15%

Structure (SMILES): NC(=O)c1nc(-c2cccc(-c3ccccc3C(F)(F)F)c2)c(Cl)[nH]1
IC50 [1]: 2.77 µM

Structure (SMILES): FC(F)(F)c1ccccc1-c1cccc(-c2cocn2)c1
IC50 [1]: 5.31 µM

Structure (SMILES): NC(=O)c1nc(-c2cccc(-c3ccccc3OC(F)(F)F)c2)co1
IC50 [1]: 2.36 µM

Structure (SMILES): FC(F)(F)Oc1ccccc1-c1cccc(-c2csc(-c3ncccn3)n2)c1
inhibition [7]: 6.3%

Structure (SMILES): CS(=O)(=O)Nc1nc(-c2cccc(-c3ccccc3OC(F)(F)F)c2)cs1
inhibition [7]: 65%

Structure (SMILES): FC(F)(F)Oc1ccccc1-c1cccc(-c2csc(-c3ncco3)n2)c1
inhibition [7]: 27%

Continued, in another order:

IC50 [1]: 1.37 µM
Structure (SMILES): CN(C)C(=O)c1nc(-c2cccc(-c3ccccc3OC(F)(F)F)c2)cs1

IC50 [1]: 0.62 µM
Structure (SMILES): NC(=O)Cc1nc(-c2cccc(-c3ccccc3OC(F)(F)F)c2)cs1

IC50 [1]: 2.14 µM
Structure (SMILES): Cc1nc(-c2cccc(-c3ccccc3OC(F)(F)F)c2)co1

IC50 [1]: 1.94 µM
Structure (SMILES): FC(F)(F)Oc1ccccc1-c1cccc(-c2cocn2)c1

inhibition [7]: 21%
Structure (SMILES): FC(F)(F)Oc1ccccc1-c1cccc(-c2csc(-c3ccccn3)n2)c1

IC50 [1]: 1.25 µM
Structure (SMILES): Cn1cc(-c2cccc(-c3ccccc3C(F)(F)F)c2)nc1C(N)=O

IC50 [1]: 0.95 µM
Structure (SMILES): FC(F)(F)Oc1ccccc1-c1cccc(-c2csc(-c3ncc[nH]3)n2)c1

inhibition [7]: 14%
Structure (SMILES): FC(F)(F)Oc1ccccc1-c1cccc(-c2c[nH]cn2)c1

Ki [6]: 0.02 µM
Structure (SMILES): O=C1NC(=O)/C(=C/c2cccc(-c3ccccc3OC(F)(F)F)c2)S1

inhibition [7]: 8%
Structure (SMILES): CCOC(=O)c1nc(-c2cccc(-c3ccccc3OC(F)(F)F)c2)c(C)s1

inhibition [7]: 84%
Structure (SMILES): Nc1nc(-c2cccc(-c3ccccc3OC(F)(F)F)c2)cs1

inhibition [7]: 5%
Structure (SMILES): CC(=O)Nc1nc(-c2cccc(-c3ccccc3OC(F)(F)F)c2)cs1

inhibition [7]: 8%
Structure (SMILES): N#CCc1nc(-c2cccc(-c3ccccc3OC(F)(F)F)c2)cs1

inhibition [7]: 6.6%
Structure (SMILES): CN(C)C(=O)Nc1nc(-c2cccc(-c3ccccc3OC(F)(F)F)c2)cs1

IC50 [1]: 230 nM (2×) and 228 nM
IC50 (Cytochrome P450 2D6): 48 µM
bioavailability [2]: 20%
half-life [3]: 79.8 min
IC50 (Cytochrome P450 3A4): 18 µM
IC50 (Cytochrome P450 2C9): 16 µM
clearance [4]: 3.12 L/h/kg
remaining at 1 h [11]: 47%
remaining at 1 h [12]: 10%
IC50 [5]: 0.015 µM
remaining at 2 h [13]: < 5%
remaining at 1 h [14]: 68%
Structure (SMILES): NC(=O)c1nc(-c2cccc(-c3ccccc3OC(F)(F)F)c2)cs1
inhibition at 1 µM (hERG (KCNH2)): 0.5%
inhibition in vivo at 10 mg/kg (Rattus norvegicus): 61%

IC50 [1]: 0.49 µM
Structure (SMILES): Cn1cc(-c2ccc(F)c(-c3ccccc3OC(F)(F)F)c2)nc1C(N)=O

IC50 (Cytochrome P450 2D6): > 40 µM
clearance [8]: 1.38 L/h/kg
bioavailability [9]: 46%
IC50 (Cytochrome P450 3A4): > 40 µM
IC50 (Cytochrome P450 2C9): > 40 µM
half-life [10]: 30 min
inhibition [7]: 55%
IC50 [5]: 0.27 µM
Structure (SMILES): NC(=O)c1nc(-c2cccc(-c3ccccc3C(F)(F)F)c2)c[nH]1
inhibition at 1 µM (hERG (KCNH2)): 25%

IC50 [1]: 2.16 µM
Structure (SMILES): FC(F)(F)Oc1ccccc1-c1cccc(-c2cscn2)c1
